Test results: patent publication US9896433B2, “Antiviral compounds” (priority 2013, dated 2018)

Experiments:
Assay in all cases: microbe, parasite or virus in culture
[1] = test system: Pseudotyped HCV GT1b particles (HCVpp, Con1 strain E1/E2); type: cell-based, Hepatitis C virus GT1b Con1 strain; settings: Hepatitis C virus, 72 h, read-out: HCVpp GT-1b (EC50, μM)
[2] = test system: Pseudotyped HCV GT1a particles (HCVpp, H77 strain E1/E2); type: cell-based, Hepatitis C virus GT1a H77 strain; settings: Hepatitis C virus, 72 h, read-out: HCVpp GT-1a (EC50, μM)
[3] = test system: pseudotyped VSV G particles (VSVpp); type: cell-based; settings: Vesicular stomatitis virus, 72 h, read-out: VSVpp (EC50, μM)

Row | Compound | EC50 [1] [µM] | EC50 [2] [µM] | EC50 [3] [µM]
1 | Nc1nc(Nc2ccnc(Cl)c2)n[nH]1 [Compound 1, N^3-(2-Chloro-pyridin-4-yl)-1H-[1,2,4]triazole-3,5-diamine] | 48.9 | 2.76 | ≥ 100
2 | Nc1nc(Nc2ccc(C(F)(F)F)nc2)n[nH]1 [Compound 2, N^3-(6-Trifluoromethyl-pyridin-3-yl)-1H-[1,2,4] triazole-3,5-diamine] | ≥ 100 | 75.4 | ≥ 100
3 | Nc1nc(Nc2cc(Cl)nc(Cl)c2)n[nH]1 [Compound 3, N^3-(2,6-Dichloro-pyridin-4-yl)-1H-[1,2,4]triazole-3,5-diamine] | 7.08 | 0.191 | ≥ 100
4 | Nc1nc(Nc2cccc(C(F)(F)F)n2)n[nH]1 [Compound 4, N^3-(6-Trifluoromethyl-pyridin-2-yl)-1H-[1,2,4] triazole-3,5-diamine] | ≥ 100 | ≥ 100 | ≥ 100
5 | CC(C)(C)c1csc(Nc2n[nH]c(N)n2)n1 [Compound 5, N^3-(4-tert-Butyl-thiazol-2-yl)-1H-[1,2,4]triazole-3,5-diamine] |  | ≥ 100 | ≥ 100
6 | Nc1nc(Nc2cc(C(F)(F)F)ccn2)n[nH]1 [Compound 6, N^3-(4-Trifluoromethyl-pyridin-2-yl)-1H-[1,2,4] triazole-3,5-diamine] |  | 62.2 | ≥ 100
7 | Nc1nc(Nc2csc(Cl)c2)n[nH]1 [Compound 7, N^3-(5-Chloro-thiophen-3-yl)-1H-[1,2,4]triazole-3,5-diamine] |  | 16.4 | ≥ 100
8 | Cn1nc(Cl)cc(Nc2n[nH]c(N)n2)c1=O [Compound 8, 4-(5-Amino-1H-[1,2,4]triazol-3-ylamino)-6-chloro-2-methyl-2H-pyridazin-3-one] | ≥ 100 |  | ≥ 100
9 | Nc1nc(Nc2ccc3c(=O)[nH]ncc3c2)n[nH]1 [Compound 9, 6-(5-Amino-1H-[1,2,4]triazol-3-ylamino)-2H-phthalazin-l-one] | 4.71 |  | ≥ 100
10 | Cn1ncc2cc(Nc3n[nH]c(N)n3)ccc2c1=O [Compound 10, 6-(5-Amino-1H-[1,2,4]triazol-3-ylamino)-2-methyl-2H-phthalazin-1-one] | 3.68 |  | ≥ 100
11 | Nc1nc(Nc2ccc3nccn3c2)n[nH]1 [Compound 11, N^3-Imidazo[1,2-a]pyridin-6-yl-1H-[1,2,4]triazole-3,5-diamine] |  | 22.3 | ≥ 100
12 | Nc1nc(Nc2ccn3ccnc3c2)n[nH]1 [Compound 12, N^3-Imidazo[1,2-a]pyridin-7-yl-1H-[1,2,4]triazole-3,5-diamine] | > 100 |  | > 100
